Literature values as cited in US20100137442A2, “Sustained Release Particulate Oral Dosage Forms of (R)-Baclofen and Methods of Treatment” (XenoPort, Inc., priority 2008, published 2010).
Each block holds one molecule with its values, some of them ahead of it.

How the values were obtained:
[1] = oral baclofen
[2] = animal models
[3] = dosed either orally or directly into the colon of a mammal
[4] = oral; 2 mg t.i.d equivalent to racemic baclofen 10 mg t.i.d.

elimination half-life [1]: 3 to 4 h | absorption following administration into the colon [2]: poorly absorbed
Compound: NCC(CC(=O)O)c1ccc(Cl)cc1 (racemic) [Baclofen, (±)-4-Amino-3-(4-chlorophenyl)butanoic acid]

bioavailability as (R)-baclofen [3]: high bioavailability
Compound: CC(C)C(=O)O[C@@H](OC(=O)NC[C@H](CC(=O)O)c1ccc(Cl)cc1)C(C)C [Compound (4), (3R)-4-{[(1S)-2-methyl-1-(2-methylpropanoyloxy)propoxy]carbonylamino}-3-(4-chlorophenyl)butanoic acid]

Compound: NC[C@H](CC(=O)O)c1ccc(Cl)cc1 [(R)-baclofen, R-(−)-baclofen]
potency relative to orally administered racemic baclofen [4]: about 5 fold
